Tests used:
Experiment in all cases: kinase panel
Assay type in all cases: biochemical
Aurora-B(h) = Aurora-B(h) (Homo sapiens, UniProt Q96GD4)
In short: (§1)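 Three compounds in the series were profiled against a panel of 231 kinases, and activity is reported as % inhibition. For one compound, a subset of 98 kinases was selected on the basis of its structural similarity to another series member.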

CHK1(h) = target: T1, CHK1(h) (Homo sapiens, UniProt O14757)
T1 sequence (O14757 1-476): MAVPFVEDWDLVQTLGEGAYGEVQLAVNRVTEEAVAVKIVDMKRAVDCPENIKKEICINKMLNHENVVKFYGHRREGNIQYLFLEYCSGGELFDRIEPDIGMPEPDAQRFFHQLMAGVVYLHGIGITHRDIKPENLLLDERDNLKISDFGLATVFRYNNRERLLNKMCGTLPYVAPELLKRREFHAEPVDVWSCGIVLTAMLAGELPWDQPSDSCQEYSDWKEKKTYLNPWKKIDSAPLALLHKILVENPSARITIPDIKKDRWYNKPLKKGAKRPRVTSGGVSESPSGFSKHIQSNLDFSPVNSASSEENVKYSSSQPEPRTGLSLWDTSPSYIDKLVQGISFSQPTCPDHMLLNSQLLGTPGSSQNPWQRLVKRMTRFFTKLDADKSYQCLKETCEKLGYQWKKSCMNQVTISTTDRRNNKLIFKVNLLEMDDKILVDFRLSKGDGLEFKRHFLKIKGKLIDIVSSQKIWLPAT
In short: as §1

FGFR3(h) = FGFR3(h) (Homo sapiens, UniProt P22607)
Sequence of FGFR3(h) (P22607 23-806): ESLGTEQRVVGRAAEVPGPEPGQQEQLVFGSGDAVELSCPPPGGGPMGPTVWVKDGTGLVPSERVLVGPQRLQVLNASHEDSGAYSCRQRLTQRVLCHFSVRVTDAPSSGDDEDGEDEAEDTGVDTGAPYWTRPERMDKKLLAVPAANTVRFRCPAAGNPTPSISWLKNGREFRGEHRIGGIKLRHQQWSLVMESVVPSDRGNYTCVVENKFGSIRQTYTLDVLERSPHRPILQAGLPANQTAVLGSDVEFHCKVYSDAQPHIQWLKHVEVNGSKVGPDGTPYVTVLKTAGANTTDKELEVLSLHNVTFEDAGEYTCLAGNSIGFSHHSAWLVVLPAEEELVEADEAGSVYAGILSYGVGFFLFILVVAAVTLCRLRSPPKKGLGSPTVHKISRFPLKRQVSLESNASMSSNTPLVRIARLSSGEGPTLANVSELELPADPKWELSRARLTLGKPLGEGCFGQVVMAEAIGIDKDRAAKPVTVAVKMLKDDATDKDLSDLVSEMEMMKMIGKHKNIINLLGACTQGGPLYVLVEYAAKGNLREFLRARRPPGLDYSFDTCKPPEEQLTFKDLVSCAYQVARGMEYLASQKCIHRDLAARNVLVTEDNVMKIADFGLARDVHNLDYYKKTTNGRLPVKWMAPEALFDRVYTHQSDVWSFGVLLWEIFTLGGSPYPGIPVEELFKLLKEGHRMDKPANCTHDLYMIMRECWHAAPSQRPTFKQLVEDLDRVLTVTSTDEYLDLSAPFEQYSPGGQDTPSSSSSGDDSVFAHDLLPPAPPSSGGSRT
In short: as §1

SGK(h) = target: T2, SGK(h) (Homo sapiens, UniProt O00141)
T2 sequence (O00141 1-431): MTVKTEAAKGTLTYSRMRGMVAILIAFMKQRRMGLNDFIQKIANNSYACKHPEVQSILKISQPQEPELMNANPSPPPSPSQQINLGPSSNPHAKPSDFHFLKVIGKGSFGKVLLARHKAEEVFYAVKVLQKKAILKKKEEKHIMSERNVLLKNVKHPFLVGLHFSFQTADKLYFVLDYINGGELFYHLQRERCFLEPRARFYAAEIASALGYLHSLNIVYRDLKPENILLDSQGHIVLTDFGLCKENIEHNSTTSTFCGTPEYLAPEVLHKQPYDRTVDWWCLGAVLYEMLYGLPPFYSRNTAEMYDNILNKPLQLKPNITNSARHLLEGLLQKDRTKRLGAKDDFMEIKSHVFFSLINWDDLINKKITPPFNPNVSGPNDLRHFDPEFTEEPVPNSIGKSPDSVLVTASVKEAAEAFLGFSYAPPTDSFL
In short: as §1

MARK1(h) = MARK1(h) (Homo sapiens, UniProt Q9P0L2)
Sequence of MARK1(h) (Q9P0L2 whole entry): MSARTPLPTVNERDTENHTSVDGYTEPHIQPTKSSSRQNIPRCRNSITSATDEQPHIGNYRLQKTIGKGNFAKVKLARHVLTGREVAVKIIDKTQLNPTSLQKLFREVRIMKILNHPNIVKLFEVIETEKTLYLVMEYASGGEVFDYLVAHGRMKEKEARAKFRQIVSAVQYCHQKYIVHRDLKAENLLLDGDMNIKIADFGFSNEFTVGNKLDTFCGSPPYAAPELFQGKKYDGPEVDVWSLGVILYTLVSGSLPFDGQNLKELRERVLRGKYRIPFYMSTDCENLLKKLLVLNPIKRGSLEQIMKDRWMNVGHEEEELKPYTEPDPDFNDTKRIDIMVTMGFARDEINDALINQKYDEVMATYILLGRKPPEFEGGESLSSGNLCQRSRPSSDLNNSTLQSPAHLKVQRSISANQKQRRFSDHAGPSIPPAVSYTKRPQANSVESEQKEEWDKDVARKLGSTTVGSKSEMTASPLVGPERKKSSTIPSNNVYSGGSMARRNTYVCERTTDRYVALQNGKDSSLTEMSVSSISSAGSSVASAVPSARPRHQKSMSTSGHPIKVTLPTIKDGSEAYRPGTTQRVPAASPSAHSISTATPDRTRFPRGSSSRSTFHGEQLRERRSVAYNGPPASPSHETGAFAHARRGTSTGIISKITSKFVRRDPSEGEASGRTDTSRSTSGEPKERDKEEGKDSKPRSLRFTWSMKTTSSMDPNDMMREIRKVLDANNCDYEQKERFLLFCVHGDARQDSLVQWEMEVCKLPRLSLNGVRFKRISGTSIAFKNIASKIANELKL
In short: as §1

Ret(h) = Ret(h) (Homo sapiens, UniProt P07949)
Sequence of Ret(h) (P07949 29-1114): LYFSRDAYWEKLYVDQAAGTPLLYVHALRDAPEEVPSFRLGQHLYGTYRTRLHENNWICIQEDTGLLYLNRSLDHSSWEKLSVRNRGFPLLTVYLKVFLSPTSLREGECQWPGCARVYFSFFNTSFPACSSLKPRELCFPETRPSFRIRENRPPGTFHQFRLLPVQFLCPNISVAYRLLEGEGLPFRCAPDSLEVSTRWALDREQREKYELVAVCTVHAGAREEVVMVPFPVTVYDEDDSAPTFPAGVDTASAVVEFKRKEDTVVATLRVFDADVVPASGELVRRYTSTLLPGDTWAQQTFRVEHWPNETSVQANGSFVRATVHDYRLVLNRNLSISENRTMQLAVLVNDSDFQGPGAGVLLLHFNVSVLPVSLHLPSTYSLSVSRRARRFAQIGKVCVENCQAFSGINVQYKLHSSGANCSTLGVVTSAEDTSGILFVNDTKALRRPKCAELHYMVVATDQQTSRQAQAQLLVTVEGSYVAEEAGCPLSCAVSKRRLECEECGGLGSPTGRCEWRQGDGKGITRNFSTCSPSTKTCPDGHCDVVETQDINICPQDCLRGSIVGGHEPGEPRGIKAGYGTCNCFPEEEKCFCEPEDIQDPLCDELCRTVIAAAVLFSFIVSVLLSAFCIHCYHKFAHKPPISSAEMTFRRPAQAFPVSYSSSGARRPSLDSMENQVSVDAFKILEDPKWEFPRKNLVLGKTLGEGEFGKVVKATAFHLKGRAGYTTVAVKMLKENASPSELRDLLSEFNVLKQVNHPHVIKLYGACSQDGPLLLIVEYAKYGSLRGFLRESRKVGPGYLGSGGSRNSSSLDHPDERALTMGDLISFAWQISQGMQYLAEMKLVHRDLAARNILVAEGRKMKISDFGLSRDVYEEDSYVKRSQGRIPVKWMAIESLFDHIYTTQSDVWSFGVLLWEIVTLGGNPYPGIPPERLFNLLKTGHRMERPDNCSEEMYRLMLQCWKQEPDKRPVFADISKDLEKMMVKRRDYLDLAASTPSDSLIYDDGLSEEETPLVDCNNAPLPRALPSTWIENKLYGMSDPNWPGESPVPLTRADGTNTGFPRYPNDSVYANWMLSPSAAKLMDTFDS
In short: as §1

GSK3α(h) = GSK3α(h) (Homo sapiens, UniProt P49840)
Sequence of GSK3α(h) (P49840 whole entry): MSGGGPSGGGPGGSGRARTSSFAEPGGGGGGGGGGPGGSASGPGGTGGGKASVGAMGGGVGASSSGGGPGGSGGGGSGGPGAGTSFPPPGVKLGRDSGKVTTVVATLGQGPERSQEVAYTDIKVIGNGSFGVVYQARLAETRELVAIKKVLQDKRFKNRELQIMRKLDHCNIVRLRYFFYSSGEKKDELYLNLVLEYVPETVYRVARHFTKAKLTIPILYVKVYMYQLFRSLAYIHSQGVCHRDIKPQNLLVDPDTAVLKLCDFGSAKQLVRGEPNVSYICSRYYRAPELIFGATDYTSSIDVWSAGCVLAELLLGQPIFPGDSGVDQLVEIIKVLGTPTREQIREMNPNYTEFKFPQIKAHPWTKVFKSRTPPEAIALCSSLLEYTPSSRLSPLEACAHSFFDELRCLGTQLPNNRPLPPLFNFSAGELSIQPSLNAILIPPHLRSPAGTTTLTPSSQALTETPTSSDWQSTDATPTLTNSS
In short: as §1

JAK3(h) = target: T3, JAK3(h) (Homo sapiens, UniProt P52333)
T3 sequence (P52333 1-1124): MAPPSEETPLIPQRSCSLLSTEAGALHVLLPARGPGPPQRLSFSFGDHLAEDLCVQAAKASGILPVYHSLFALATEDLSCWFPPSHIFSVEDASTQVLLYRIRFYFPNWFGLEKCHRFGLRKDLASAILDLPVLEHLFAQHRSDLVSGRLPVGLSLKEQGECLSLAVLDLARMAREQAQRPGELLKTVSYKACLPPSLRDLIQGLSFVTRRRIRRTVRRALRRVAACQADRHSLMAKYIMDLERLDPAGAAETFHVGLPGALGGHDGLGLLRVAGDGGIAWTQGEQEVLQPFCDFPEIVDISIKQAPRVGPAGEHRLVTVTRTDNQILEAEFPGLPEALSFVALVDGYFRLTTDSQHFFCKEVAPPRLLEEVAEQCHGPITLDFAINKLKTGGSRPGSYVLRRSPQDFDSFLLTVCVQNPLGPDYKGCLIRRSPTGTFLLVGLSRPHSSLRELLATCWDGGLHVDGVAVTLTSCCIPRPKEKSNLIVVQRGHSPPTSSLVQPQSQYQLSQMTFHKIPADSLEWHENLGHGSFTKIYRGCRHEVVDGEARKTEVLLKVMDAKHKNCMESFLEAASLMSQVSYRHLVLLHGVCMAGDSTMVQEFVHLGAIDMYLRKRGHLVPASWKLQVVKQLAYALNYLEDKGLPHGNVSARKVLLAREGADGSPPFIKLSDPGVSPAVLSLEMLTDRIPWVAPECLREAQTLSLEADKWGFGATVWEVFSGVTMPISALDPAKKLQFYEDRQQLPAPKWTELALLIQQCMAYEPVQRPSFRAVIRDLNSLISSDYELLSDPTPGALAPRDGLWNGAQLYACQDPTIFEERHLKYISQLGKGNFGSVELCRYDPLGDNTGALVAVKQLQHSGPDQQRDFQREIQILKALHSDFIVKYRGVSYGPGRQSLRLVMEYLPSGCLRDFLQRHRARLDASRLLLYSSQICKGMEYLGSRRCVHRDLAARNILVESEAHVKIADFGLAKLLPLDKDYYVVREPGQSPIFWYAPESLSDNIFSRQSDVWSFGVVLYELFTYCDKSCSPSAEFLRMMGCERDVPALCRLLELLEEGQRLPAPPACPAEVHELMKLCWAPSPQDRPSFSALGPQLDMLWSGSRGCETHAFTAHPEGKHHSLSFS
In short: as §1

c-RAF(h) = c-RAF(h) (Homo sapiens, UniProt P04049)
Sequence of c-RAF(h) (P04049 whole entry): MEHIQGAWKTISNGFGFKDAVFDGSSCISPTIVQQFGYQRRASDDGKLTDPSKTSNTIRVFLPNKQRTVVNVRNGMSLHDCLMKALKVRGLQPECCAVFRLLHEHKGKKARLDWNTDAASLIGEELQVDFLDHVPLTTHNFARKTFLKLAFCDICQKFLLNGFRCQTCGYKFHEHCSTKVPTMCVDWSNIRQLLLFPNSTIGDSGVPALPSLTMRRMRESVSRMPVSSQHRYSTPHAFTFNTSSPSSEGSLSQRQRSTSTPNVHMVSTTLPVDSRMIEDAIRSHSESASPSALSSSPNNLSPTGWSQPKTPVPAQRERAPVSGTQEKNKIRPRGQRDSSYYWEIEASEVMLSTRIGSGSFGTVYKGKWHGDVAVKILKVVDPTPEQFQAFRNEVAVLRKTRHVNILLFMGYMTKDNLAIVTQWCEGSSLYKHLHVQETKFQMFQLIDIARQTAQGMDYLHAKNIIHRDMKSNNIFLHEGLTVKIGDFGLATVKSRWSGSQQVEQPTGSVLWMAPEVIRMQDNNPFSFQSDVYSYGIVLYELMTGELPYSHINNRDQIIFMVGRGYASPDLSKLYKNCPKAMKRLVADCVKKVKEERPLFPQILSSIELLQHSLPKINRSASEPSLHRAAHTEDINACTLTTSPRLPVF
In short: as §1

MAPK1(h) = MAPK1(h) (Homo sapiens, UniProt P27361)
Sequence of MAPK1(h) (P27361 whole entry): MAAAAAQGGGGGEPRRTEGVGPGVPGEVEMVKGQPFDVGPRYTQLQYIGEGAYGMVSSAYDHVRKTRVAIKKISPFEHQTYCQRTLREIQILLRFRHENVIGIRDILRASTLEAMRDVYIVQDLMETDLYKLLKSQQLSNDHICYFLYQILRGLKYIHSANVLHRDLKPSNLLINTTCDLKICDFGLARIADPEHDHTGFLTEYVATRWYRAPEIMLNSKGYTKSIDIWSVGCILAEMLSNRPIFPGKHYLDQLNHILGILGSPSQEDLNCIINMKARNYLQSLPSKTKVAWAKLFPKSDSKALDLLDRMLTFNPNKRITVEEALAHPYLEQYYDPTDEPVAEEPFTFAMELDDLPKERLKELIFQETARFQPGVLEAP
In short: as §1

Sequence of Aurora-B(h) (Q96GD4 whole entry): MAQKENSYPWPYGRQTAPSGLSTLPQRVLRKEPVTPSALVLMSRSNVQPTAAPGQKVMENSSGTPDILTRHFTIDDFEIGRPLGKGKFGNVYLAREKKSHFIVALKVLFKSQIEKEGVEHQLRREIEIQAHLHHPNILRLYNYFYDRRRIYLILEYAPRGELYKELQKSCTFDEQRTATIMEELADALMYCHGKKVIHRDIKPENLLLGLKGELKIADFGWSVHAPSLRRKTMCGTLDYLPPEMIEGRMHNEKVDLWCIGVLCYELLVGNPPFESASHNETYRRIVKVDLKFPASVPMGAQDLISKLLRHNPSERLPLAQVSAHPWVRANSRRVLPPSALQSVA

SMILES | inhibition at 1 µM (Aurora-B(h)) | inhibition at 1 µM (CHK1(h)) | inhibition at 1 µM (FGFR3(h)) | inhibition at 1 µM (SGK(h)) | inhibition at 1 µM (MARK1(h)) | inhibition at 1 µM (Ret(h)) | inhibition at 1 µM (GSK3α(h)) | inhibition at 1 µM (JAK3(h)) | inhibition at 1 µM (c-RAF(h)) | inhibition at 1 µM (MAPK1(h))
Nc1n[nH]c2ccc(-c3ccnc4[nH]c(-c5ccccc5)cc34)cc12 [Compound 4] | 99% | -2% | 77% | 15% | 84% | 52% | 95% | 76% | 29% | 46%
Nc1n[nH]c2ccc(-c3ccnc4[nH]c(-c5cccc(OCc6ccccc6)c5)cc34)cc12 [Compound 5r [SU1261]] | 92% | -2% | 41% | -10% | 28% | 41% | 74% | 30% | 20% | -4%
Nc1n[nH]c2ccc(-c3ccnc4[nH]c(-c5ccnc(OCc6ccccc6)c5)cc34)cc12 [Compound 6g [SU1349]] | 71% | -9% | 0% | 22% | 17% | -3% | 27% | 18% | 2% | 18%

Reference: PMC11314561, “Design and Synthesis of Novel Aminoindazole-pyrrolo[2,3-b]pyridine Inhibitors of IKKα That Selectively Perturb Cellular Non-Canonical NF-κB Signalling” (Molecules, 2024)
